Several values for one entry are separate records, joined by “and”; a condition that tells them apart may be missing. Identical values can stand only once. Toxic doses and inconclusive results are not listed. No stated cut-off is given here; in the data, active means T/C of 150% or more; inactive means T/C below 125%. Square brackets hold non-standard residues; d marks the D form. Peptide text beside a SMILES is read from it. ξ: configuration not given here. ξV = CC(C)C(N)C(=O)O
Tested on: L1210 leukemia ip in BDF1 mice, survival T/C
Experiment: NCI In Vivo Anticancer Drug Screen. Data for tumor model L1210 Leukemia (intraperitoneal) in B6D2F1 (BDF1) mice
Conditions: endpoint: mean survival time, higher = longer survival
How it was run: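 Each compound was tested against a transplantable tumor grown in mice. The endpoint was survival, with treated animals benchmarked against vehicle controls as a simple ratio.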

[1] = dose: 100.0 mg/kg/injection, schedule: Q01DX001 (ip), vehicle: saline
[2] = dose: 100.0 mg/kg/injection, schedule: Q01DX009 (ip), vehicle: saline
[3] = dose: 200.0 mg/kg/injection, schedule: Q01DX001 (ip), vehicle: saline
[4] = dose: 200.0 mg/kg/injection, schedule: Q01DX009 (ip), vehicle: saline
[5] = dose: 400.0 mg/kg/injection, schedule: Q01DX001 (ip), vehicle: saline
[6] = dose: 400.0 mg/kg/injection, schedule: Q01DX009 (ip), vehicle: saline
[7] = dose: 100.0 mg/kg/injection, schedule: Q04DX002 (ip), vehicle: Klucel (hydroxypropylcellulose) (HPC)
[8] = dose: 200.0 mg/kg/injection, schedule: Q04DX002 (ip), vehicle: Klucel (hydroxypropylcellulose) (HPC)
[9] = dose: 400.0 mg/kg/injection, schedule: Q04DX002 (ip), vehicle: Klucel (hydroxypropylcellulose) (HPC)
[10] = dose: 100.0 mg/kg/injection, schedule: Q04DX003 (ip), vehicle: saline
[11] = dose: 200.0 mg/kg/injection, schedule: Q04DX003 (ip), vehicle: saline
[12] = dose: 200.0 mg/kg/injection, schedule: Q01DX001 (ip), vehicle: Klucel (hydroxypropylcellulose) (HPC)
[13] = dose: 400.0 mg/kg/injection, schedule: Q01DX001 (ip), vehicle: Klucel (hydroxypropylcellulose) (HPC)
[14] = dose: 100.0 mg/kg/injection, schedule: Q04DX003 (ip), vehicle: saline with Tween-80
[15] = dose: 200.0 mg/kg/injection, schedule: Q04DX003 (ip), vehicle: saline with Tween-80
[16] = dose: 400.0 mg/kg/injection, schedule: Q04DX003 (ip), vehicle: saline with Tween-80
[17] = dose: 400.0 mg/kg/injection, schedule: Q04DX003 (ip), vehicle: saline
[18] = dose: 100.0 mg/kg/injection, schedule: Q01DX009 (ip), vehicle: saline with Tween-80
[19] = dose: 200.0 mg/kg/injection, schedule: Q01DX009 (ip), vehicle: saline with Tween-80
[20] = dose: 400.0 mg/kg/injection, schedule: Q01DX009 (ip), vehicle: saline with Tween-80

Measured: T/C

COC(=O)c1ccc(=O)n(C/C=C(\C)CCC=C(C)C)c1
inactive: [1] 95 % of control | [2] 104 % of control | [3] 97 % of control | [4] 90 % of control | [5] 101 % of control | [6] 101 % of control

O=C(C[n+]1cccc2ccccc21)c1ccc(-c2ccc(C(=O)C[n+]3cccc4ccccc43)cc2)cc1
inactive: dose: 0.13 mg/kg/injection, schedule: Q04DX003 (ip), vehicle: saline 103 % of control | dose: 0.25 mg/kg/injection, schedule: Q04DX003 (ip), vehicle: saline 103 % of control | dose: 0.5 mg/kg/injection, schedule: Q04DX003 (ip), vehicle: saline 102 % of control

CNNCc1ccccc1
inactive: [1] 117 % of control | [3] 115 % of control

NC(=O)OCC(O)COc1ccc(Cl)cc1 (stereo unspecified)
inactive: [1] 95 % of control | [3] 97 % of control | [5] 95 % of control

Cc1cccc(C(=O)NO)c1O
inactive: dose: 75.0 mg/kg/injection, schedule: Q01DX001 (ip), vehicle: saline 101 % of control | dose: 150.0 mg/kg/injection, schedule: Q01DX001 (ip), vehicle: saline 98 % of control

CNC(=O)Oc1ccc(C=Nc2cccc(Cl)c2)cc1
inactive: [7] 98 % of control | [8] 98 % of control | [9] 98 % of control

CC1(N)CC2CCC1C2 (stereo unspecified)
inactive: [10] 96 % of control | [11] 92 % of control

Oc1ccc2ccnc(Cc3ccc(Br)cc3)c2c1
inactive: [12] 89 % of control | [13] 89 % of control

O=C(Nc1ccc(C2=NCCCCN2)cc1)c1ccc(C(=O)Nc2ccc(C3=NCCCCN3)cc2)c(Cl)c1
inactive: dose: 0.12 mg/kg/injection, schedule: Q01DX015 (ip), vehicle: water 101 % of control | dose: 0.25 mg/kg/injection, schedule: Q01DX015 (ip), vehicle: water 101 % of control | dose: 0.5 mg/kg/injection, schedule: Q01DX015 (ip), vehicle: water 100 % of control and 101 % of control | dose: 0.75 mg/kg/injection, schedule: Q01DX015 (ip), vehicle: water 103 % of control

CSCCCNC(=O)NS(=O)(=O)c1ccc(C)cc1
inactive: [14] 97 % of control | [15] 100 % of control | [16] 97 % of control

CCOC(=O)c1cnc(SC)nc1Nc1ccccc1Cl
inactive: [14] 87 % of control | [15] 87 % of control

CC(C)(C(=O)O)c1ccc(-c2ccccc2)cc1
inactive: [14] 102 % of control | [15] 97 % of control | [16] 106 % of control

Cc1nc(N)c2c(n1)C(Cc1ccccc1)N(C(=O)c1ccccc1)C2 (stereo unspecified)
inactive: dose: 100.0 mg/kg/injection, schedule: Q01DX001 (ip), vehicle: carboxymethylcellulose (CMC) 97 % of control | dose: 200.0 mg/kg/injection, schedule: Q01DX001 (ip), vehicle: carboxymethylcellulose (CMC) 97 % of control | dose: 400.0 mg/kg/injection, schedule: Q01DX001 (ip), vehicle: carboxymethylcellulose (CMC) 103 % of control

CCCCS(=O)(=O)N1CCC(C)CC1
inactive: [7] 87 % of control | [8] 91 % of control | [9] 94 % of control

c1ccc(C(=C2CCC2)c2c3ccccc3cc3ccccc23)cc1
inactive: dose: 40.0 mg/kg/injection, schedule: Q01DX009 (ip), vehicle: Klucel (hydroxypropylcellulose) (HPC) 99 % of control | dose: 75.0 mg/kg/injection, schedule: Q01DX001 (ip), vehicle: Klucel (hydroxypropylcellulose) (HPC) 93 % of control | dose: 75.0 mg/kg/injection, schedule: Q01DX009 (ip), vehicle: Klucel (hydroxypropylcellulose) (HPC) 107 % of control | dose: 150.0 mg/kg/injection, schedule: Q01DX001 (ip), vehicle: Klucel (hydroxypropylcellulose) (HPC) 90 % of control | dose: 150.0 mg/kg/injection, schedule: Q01DX009 (ip), vehicle: Klucel (hydroxypropylcellulose) (HPC) 99 % of control

CC(C)C(N)C(=O)NCC(=O)NCC(=O)O (stereo not drawn) (H-[ξV]-Gly-Gly-OH)
inactive: [2] 98 % of control | [10] 102 % of control | [4] 96 % of control | [11] 94 % of control | [6] 98 % of control | [17] 100 % of control

COC(=O)C1(C)COP(=O)(O)OC1 (stereo unspecified) (tested in a mixture with another compound)
inactive: [1] 91 % of control and 107 % of control and 100 % of control | [3] 94 % of control and 96 % of control and 97 % of control | [5] 89 % of control and 105 % of control and 107 % of control

O=C(O)CS(=O)(=O)c1ccc(Cl)cc1
inactive: [18] 109 % of control | [19] 102 % of control | [20] 86 % of control

COc1nc(-c2ccccc2)cn[n+]1C
inactive: dose: 33.0 mg/kg/injection, schedule: Q01DX001 (ip), vehicle: saline with Tween-80 103 % of control | dose: 50.0 mg/kg/injection, schedule: Q01DX001 (ip), vehicle: saline with Tween-80 107 % of control | dose: 75.0 mg/kg/injection, schedule: Q01DX001 (ip), vehicle: saline with Tween-80 113 % of control

Cc1ccc(Cl)cc1NC(=O)Nc1cccc(C(F)(F)F)c1
inactive: dose: 50.0 mg/kg/injection, schedule: Q01DX009 (ip), vehicle: saline with Tween-80 97 % of control and 90 % of control | dose: 100.0 mg/kg/injection, schedule: Q04DX002 (ip), vehicle: saline with Tween-80 102 % of control and 88 % of control | [14] 101 % of control | dose: 200.0 mg/kg/injection, schedule: Q04DX002 (ip), vehicle: saline with Tween-80 98 % of control and 90 % of control | [15] 96 % of control | [20] 105 % of control and 90 % of control | dose: 400.0 mg/kg/injection, schedule: Q04DX002 (ip), vehicle: saline with Tween-80 104 % of control and 91 % of control | [16] 91 % of control

NC(=O)/C=C/c1cccnc1
inactive: [10] 91 % of control | [11] 98 % of control | [17] 96 % of control

COc1cc(OC)cc(C(=O)Cl)c1
inactive: [18] 100 % of control | [19] 103 % of control | [20] 86 % of control

O=C(NCCCl)NC1(C(=O)O)CCCC1
inactive: dose: 100.0 mg/kg/injection, schedule: Q01DX001 (ip), vehicle: Klucel (hydroxypropylcellulose) (HPC) 98 % of control | [12] 107 % of control | [13] 98 % of control

O=C1C=Cc2ccc(O)cc2C1=O
inactive: dose: 0.57 mg/kg/injection, schedule: Q01DX Z (ip), vehicle: saline 107 % of control | dose: 0.86 mg/kg/injection, schedule: Q01DX Z (ip), vehicle: saline 109 % of control | dose: 1.3 mg/kg/injection, schedule: Q01DX Z (ip), vehicle: saline 113 % of control | dose: 2.0 mg/kg/injection, schedule: Q01DX Z (ip), vehicle: saline 101 % of control and 104 % of control | dose: 3.0 mg/kg/injection, schedule: Q01DX Z (ip), vehicle: saline 89 % of control | dose: 4.5 mg/kg/injection, schedule: Q01DX Z (ip), vehicle: saline 95 % of control | dose: 6.7 mg/kg/injection, schedule: Q01DX Z (ip), vehicle: saline 101 % of control and 90 % of control | dose: 10.0 mg/kg/injection, schedule: Q01DX001 (ip), vehicle: acetone 104 % of control
